From US20100292231A1, “Indazole Compounds for Treating Inflammatory Disorders, Demyelinating Disorders and Cancers” (priority 2007, published 2010)
pEC50: −log10 of the molar value. Read-outs that look alike come from different tables or passages of the source.

Columns and labels:
Assay in all cases: SelectScreen kinase specificity survey
Assay type in all cases: biochemical
STK22D (TSSK1) = target: T1, STK22D (TSSK1) (Homo sapiens, UniProt Q9BXA7); conditions: estimated, abridged dose response curve, read-out: Kinase inhibitory activity EC50
T1 construct: purchased Invitrogen, Inc. (SelectScreen platform)
In short: (§1)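 Specificity was surveyed across 230 kinases using kinase-matched substrate/optical reporter pairs and 100 micromolar ATP. EC50 comes from a 4-parameter Hill fit of an abridged curve.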

PAK4 = target: T2, PAK4 (Homo sapiens, UniProt O96013); conditions: estimated, abridged dose response curve, read-out: Kinase inhibitory activity EC50
T2 construct: purchased Invitrogen (SelectScreen platform)
In short: as §1

PHKG1 = target: T3, PHKG1 (Homo sapiens, UniProt Q16816); conditions: estimated, abridged dose response curve, read-out: Kinase inhibitory activity EC50
T3 construct: purchased Invitrogen, Inc. (SelectScreen platform)
In short: as §1

MAP2K1 (MEK1) = target: T4, MAP2K1 (MEK1) (Homo sapiens, UniProt Q02750); conditions: estimated, abridged dose response curve, read-out: Kinase inhibitory activity EC50
T4 construct: purchased Invitrogen (SelectScreen platform)
T4 sequence (Q02750 whole entry): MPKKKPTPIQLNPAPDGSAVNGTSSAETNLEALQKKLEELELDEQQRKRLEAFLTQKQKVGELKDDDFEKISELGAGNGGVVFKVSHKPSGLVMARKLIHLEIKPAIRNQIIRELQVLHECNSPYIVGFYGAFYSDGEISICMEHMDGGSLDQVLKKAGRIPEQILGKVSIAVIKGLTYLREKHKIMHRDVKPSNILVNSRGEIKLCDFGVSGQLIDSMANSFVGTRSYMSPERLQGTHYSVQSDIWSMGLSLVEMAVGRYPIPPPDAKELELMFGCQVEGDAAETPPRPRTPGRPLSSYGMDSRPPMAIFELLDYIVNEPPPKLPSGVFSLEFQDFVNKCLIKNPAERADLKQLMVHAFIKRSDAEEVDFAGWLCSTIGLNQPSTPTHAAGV
In short: as §1

JAK3 = target: T5, JAK3 (Homo sapiens, UniProt P52333); conditions: estimated, abridged dose response curve, read-out: Kinase inhibitory activity EC50
T5 construct: purchased Invitrogen (SelectScreen platform)
In short: as §1

PTK6 (Brk) = target: T6, PTK6 (Brk) (Homo sapiens, UniProt Q13882); conditions: estimated, abridged dose response curve, read-out: Kinase inhibitory activity EC50
T6 construct: purchased Invitrogen (SelectScreen)
T6 sequence (Q13882 whole entry): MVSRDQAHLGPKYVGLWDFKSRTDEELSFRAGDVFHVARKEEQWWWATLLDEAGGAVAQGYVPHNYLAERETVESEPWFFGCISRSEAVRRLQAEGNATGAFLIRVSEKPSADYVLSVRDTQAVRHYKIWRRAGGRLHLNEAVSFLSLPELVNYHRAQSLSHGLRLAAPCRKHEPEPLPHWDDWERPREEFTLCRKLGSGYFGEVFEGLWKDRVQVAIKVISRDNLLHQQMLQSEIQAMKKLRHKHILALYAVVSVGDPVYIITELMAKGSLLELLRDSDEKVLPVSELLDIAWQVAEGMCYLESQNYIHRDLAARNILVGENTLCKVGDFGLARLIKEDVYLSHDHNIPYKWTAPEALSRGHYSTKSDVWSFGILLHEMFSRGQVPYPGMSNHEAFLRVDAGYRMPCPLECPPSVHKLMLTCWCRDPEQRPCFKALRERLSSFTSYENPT
In short: as §1

CSNK1G3 (CK1 gamma 3) = target: T7, CSNK1G3 (CK1 gamma 3) (Homo sapiens, UniProt Q9Y6M4); conditions: estimated, abridged dose response curve, read-out: Kinase inhibitory activity EC50
T7 construct: purchased Invitrogen (SelectScreen platform)
In short: as §1

GRK5 = target: T8, GRK5 (Homo sapiens, UniProt P34947)
T8 construct: purchased Invitrogen (SelectScreen platform)
In short: as §1

MET (cMet) = target: T9, MET (cMet) (Homo sapiens, UniProt P08581); conditions: estimated, abridged dose response curve, read-out: Kinase inhibitory activity EC50
T9 construct: purchased Invitrogen (SelectScreen platform)
In short: as §1

ROCK1 = target: T10, ROCK1 (Homo sapiens, UniProt Q13464); conditions: estimated, abridged dose response curve, read-out: Kinase inhibitory activity EC50
T10 construct: purchased Invitrogen (SelectScreen platform)
In short: as §1

ABL1 G250E = target: T11, ABL1 G250E (Homo sapiens, UniProt P00519, G250E); conditions: estimated, abridged dose response curve, read-out: Kinase inhibitory activity EC50
T11 construct: purchased Invitrogen (SelectScreen platform)
In short: as §1

FGFR4 = target: T12, FGFR4 (Homo sapiens, UniProt P22455); conditions: estimated, abridged dose response curve, read-out: Kinase inhibitory activity EC50
T12 construct: purchased Invitrogen (SelectScreen platform)
T12 sequence (P22455 22-802): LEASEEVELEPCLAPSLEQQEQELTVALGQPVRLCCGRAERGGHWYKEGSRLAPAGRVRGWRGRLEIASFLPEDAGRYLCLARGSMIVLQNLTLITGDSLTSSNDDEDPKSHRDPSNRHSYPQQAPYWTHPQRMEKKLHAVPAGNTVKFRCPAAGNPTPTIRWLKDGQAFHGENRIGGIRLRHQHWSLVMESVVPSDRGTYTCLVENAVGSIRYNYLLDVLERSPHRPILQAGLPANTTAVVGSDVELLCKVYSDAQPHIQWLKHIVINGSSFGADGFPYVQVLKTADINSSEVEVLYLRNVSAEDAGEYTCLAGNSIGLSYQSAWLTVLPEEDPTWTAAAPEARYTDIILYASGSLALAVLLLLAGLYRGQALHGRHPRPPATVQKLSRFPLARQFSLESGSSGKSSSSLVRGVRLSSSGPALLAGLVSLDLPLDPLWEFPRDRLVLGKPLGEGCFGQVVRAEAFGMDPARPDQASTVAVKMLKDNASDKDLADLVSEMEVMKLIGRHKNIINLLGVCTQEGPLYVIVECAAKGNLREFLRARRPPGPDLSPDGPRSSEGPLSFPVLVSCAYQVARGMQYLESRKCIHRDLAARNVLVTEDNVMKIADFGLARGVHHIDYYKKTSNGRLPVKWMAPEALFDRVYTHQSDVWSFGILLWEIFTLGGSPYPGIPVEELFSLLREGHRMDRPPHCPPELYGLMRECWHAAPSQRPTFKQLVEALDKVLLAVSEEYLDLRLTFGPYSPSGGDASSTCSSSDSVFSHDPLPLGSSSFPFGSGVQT
In short: as §1

CDK5/p35 = target: T13, CDK5/p35 (Homo sapiens, UniProt Q00535); conditions: estimated, abridged dose response curve, read-out: Kinase inhibitory activity EC50
T13 construct: purchased Invitrogen (SelectScreen platform)
In short: as §1

MARK2 = target: T14, MARK2 (Homo sapiens, UniProt Q7KZI7); conditions: estimated, abridged dose response curve, read-out: Kinase inhibitory activity EC50
T14 construct: purchased Invitrogen, Inc. (SelectScreen platform)
T14 sequence (Q7KZI7 whole entry): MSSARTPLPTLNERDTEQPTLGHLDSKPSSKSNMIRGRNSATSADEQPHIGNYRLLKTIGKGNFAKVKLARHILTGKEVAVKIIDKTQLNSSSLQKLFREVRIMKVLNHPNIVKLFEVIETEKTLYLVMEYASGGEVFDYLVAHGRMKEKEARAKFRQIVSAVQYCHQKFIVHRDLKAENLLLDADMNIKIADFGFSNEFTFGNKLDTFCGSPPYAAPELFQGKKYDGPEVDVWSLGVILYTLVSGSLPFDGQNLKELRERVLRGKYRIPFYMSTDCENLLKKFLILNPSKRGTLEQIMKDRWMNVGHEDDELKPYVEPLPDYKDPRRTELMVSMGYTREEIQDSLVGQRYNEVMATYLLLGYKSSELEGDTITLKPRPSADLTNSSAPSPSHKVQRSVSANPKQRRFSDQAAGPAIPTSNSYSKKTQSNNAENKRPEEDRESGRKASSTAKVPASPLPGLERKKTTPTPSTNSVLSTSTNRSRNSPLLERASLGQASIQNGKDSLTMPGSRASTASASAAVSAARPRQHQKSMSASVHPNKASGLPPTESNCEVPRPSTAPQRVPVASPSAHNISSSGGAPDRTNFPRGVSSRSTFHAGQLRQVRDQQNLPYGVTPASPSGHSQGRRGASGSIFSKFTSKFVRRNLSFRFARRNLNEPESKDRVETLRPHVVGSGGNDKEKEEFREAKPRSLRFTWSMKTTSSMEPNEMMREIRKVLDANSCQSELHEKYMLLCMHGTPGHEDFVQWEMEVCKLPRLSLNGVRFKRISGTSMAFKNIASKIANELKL
In short: as §1

ABL1 Y253F = target: T15, ABL1 Y253F (Homo sapiens, UniProt P00519, Y253F); conditions: estimated, abridged dose response curve, read-out: Kinase inhibitory activity EC50
T15 construct: purchased Invitrogen (SelectScreen platform)
In short: as §1

PDGFRA T674I = target: T16, PDGFRA T674I (Homo sapiens, UniProt P16234, T674I); conditions: estimated, abridged dose response curve, read-out: Kinase inhibitory activity EC50
T16 construct: purchased Invitrogen (SelectScreen platform)
In short: as §1

MAP2K2 (MEK2) = target: T17, MAP2K2 (MEK2) (Homo sapiens, UniProt P36507); conditions: estimated, abridged dose response curve, read-out: Kinase inhibitory activity EC50
T17 construct: purchased Invitrogen (SelectScreen platform)
T17 sequence (P36507 whole entry): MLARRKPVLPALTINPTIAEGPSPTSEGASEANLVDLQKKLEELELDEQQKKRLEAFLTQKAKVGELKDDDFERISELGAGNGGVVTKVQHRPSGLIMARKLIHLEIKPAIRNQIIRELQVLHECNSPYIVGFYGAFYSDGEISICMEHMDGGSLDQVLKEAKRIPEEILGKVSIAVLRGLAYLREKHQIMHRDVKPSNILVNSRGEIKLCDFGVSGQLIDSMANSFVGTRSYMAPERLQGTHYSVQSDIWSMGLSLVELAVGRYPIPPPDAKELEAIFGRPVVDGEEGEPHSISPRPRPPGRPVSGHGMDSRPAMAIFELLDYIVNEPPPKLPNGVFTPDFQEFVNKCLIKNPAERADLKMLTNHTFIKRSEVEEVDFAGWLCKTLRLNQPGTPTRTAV
In short: as §1

EPHA8 = target: T18, EPHA8 (Homo sapiens, UniProt P29322); conditions: estimated, abridged dose response curve, read-out: Kinase inhibitory activity EC50
T18 construct: purchased Invitrogen (SelectScreen service)
In short: as §1

HCK = target: T19, HCK (Homo sapiens, UniProt P08631); conditions: estimated, abridged dose response curve, read-out: Kinase inhibitory activity EC50
T19 construct: purchased Invitrogen (SelectScreen)
In short: as §1

PRKCD (PKC delta) = target: T20, PRKCD (PKC delta) (Homo sapiens, UniProt Q05655); conditions: estimated, abridged dose response curve, read-out: Kinase inhibitory activity EC50
T20 construct: purchased Invitrogen, Inc. (SelectScreen platform)
In short: as §1

FYN = target: T21, FYN (Homo sapiens, UniProt P06241); conditions: estimated, abridged dose response curve, read-out: Kinase inhibitory activity EC50
T21 construct: purchased Invitrogen (SelectScreen)
T21 sequence (P06241 whole entry): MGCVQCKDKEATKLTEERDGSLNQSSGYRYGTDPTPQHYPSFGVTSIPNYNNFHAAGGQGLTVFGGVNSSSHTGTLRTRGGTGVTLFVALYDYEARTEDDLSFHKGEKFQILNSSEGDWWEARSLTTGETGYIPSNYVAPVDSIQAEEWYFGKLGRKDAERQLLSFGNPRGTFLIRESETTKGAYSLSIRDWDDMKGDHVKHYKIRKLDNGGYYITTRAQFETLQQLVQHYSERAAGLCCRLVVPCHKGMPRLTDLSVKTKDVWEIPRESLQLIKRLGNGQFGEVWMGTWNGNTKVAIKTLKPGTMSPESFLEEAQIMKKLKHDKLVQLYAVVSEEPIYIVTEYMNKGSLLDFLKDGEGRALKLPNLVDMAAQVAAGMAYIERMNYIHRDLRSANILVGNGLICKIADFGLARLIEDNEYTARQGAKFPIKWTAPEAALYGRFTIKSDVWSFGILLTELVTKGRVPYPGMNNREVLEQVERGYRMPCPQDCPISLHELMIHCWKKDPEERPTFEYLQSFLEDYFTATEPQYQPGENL
In short: as §1

IGF1R = target: T22, IGF1R (Homo sapiens, UniProt P08069); conditions: estimated, abridged dose response curve, read-out: Kinase inhibitory activity EC50
T22 construct: purchased Invitrogen (SelectScreen platform)
T22 sequence (P08069 31-1367): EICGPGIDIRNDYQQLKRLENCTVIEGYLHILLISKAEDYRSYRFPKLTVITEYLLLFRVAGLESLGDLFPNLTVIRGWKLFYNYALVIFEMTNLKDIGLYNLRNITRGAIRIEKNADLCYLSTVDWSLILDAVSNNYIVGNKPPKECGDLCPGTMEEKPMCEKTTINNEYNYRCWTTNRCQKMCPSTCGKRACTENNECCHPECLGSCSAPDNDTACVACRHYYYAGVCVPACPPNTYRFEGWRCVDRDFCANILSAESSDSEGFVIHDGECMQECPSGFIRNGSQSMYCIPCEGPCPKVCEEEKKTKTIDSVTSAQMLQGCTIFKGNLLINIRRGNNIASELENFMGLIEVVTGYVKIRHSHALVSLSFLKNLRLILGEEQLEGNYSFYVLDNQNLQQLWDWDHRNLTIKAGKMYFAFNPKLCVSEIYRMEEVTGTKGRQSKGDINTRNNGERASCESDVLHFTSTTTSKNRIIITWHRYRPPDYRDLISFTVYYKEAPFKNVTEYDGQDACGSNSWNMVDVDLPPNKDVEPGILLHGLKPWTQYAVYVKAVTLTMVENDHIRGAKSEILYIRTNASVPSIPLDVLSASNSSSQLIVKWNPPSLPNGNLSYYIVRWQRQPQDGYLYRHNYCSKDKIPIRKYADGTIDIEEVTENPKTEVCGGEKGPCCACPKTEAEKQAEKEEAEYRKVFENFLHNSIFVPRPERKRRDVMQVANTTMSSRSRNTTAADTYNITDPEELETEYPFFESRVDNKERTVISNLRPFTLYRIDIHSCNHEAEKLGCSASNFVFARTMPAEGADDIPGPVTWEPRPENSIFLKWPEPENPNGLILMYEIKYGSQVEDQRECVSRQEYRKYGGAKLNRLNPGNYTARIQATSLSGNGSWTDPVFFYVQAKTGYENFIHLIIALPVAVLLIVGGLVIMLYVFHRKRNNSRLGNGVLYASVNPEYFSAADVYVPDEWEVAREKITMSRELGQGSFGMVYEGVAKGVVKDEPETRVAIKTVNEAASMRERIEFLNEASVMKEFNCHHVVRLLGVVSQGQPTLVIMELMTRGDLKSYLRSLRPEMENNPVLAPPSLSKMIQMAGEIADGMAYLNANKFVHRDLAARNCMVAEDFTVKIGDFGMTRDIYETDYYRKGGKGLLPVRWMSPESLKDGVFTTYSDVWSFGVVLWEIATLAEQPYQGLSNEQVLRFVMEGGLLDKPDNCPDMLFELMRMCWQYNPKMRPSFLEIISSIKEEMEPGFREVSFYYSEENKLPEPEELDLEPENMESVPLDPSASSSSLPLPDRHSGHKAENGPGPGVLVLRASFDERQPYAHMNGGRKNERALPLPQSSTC
In short: as §1

GSK3B (GSK3 beta) = target: T23, GSK3B (GSK3 beta) (Homo sapiens, UniProt P49841); conditions: estimated, abridged dose response curve, read-out: Kinase inhibitory activity EC50
T23 construct: purchased Invitrogen (SelectScreen platform)
In short: as §1

NEK4 = target: T24, NEK4 (Homo sapiens, UniProt P51957); conditions: estimated, abridged dose response curve, read-out: Kinase inhibitory activity EC50
T24 construct: purchased Invitrogen, Inc. (SelectScreen service)
In short: as §1

LYN A = target: T25, LYN A (Homo sapiens, UniProt P07948); conditions: estimated, abridged dose response curve, read-out: Kinase inhibitory activity EC50
T25 construct: purchased Invitrogen (SelectScreen)
In short: as §1

MAPK12 (p38 gamma) = target: T26, MAPK12 (p38 gamma) (Homo sapiens, UniProt P53778); conditions: estimated, abridged dose response curve, read-out: Kinase inhibitory activity EC50
T26 construct: purchased Invitrogen (SelectScreen platform)
In short: as §1

CSNK1A1 (CK1 alpha 1) = target: T27, CSNK1A1 (CK1 alpha 1) (Homo sapiens, UniProt P48729); conditions: estimated, abridged dose response curve, read-out: Kinase inhibitory activity EC50
T27 construct: purchased Invitrogen (SelectScreen platform)
T27 sequence (P48729 whole entry): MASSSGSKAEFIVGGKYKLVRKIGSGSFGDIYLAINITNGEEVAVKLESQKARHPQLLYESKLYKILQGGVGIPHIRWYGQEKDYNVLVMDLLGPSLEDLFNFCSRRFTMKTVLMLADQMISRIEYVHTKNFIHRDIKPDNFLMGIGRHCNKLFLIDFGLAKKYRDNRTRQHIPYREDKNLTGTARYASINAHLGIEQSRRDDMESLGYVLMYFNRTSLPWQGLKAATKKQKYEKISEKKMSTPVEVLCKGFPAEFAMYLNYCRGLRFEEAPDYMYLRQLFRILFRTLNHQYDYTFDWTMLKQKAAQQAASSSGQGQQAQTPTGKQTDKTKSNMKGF
In short: as §1

Row | Structure (SMILES) | pEC50 (STK22D (TSSK1)) | pEC50 (PAK4) | pEC50 (PHKG1) | pEC50 (MAP2K1 (MEK1)) | pEC50 (JAK3) | pEC50 (PTK6 (Brk)) | pEC50 (CSNK1G3 (CK1 gamma 3)) | pEC50 (MET (cMet)) | pEC50 (ROCK1) | pEC50 (ABL1 G250E) | pEC50 (FGFR4) | pEC50 (CDK5/p35) | pEC50 (MARK2) | pEC50 (ABL1 Y253F) | pEC50 (PDGFRA T674I) | pEC50 (MAP2K2 (MEK2)) | pEC50 (EPHA8) | pEC50 (HCK) | pEC50 (PRKCD (PKC delta)) | pEC50 (FYN) | also measured
1 | CN(C)CCCNc1ccc2ncn3c4ccc5[nH]ncc5c4c(=O)c1c23 [Compound (IV)] | 5.70 | < 5.30 | 6.00 | < 5.30 | < 5.30 | < 5.30 | < 5.30 | < 5.30 | 6.31 | 5.39 | < 5.30 | 5.55 | 5.46 | 5.60 | < 5.30 | < 5.30 | 5.38 | 5.64 | < 5.30 | 6.12 | pEC50 (GRK5; GRK5, estimated, abridged dose response curve, read-out: Kinase inhibitory activity EC50): < 5.30; pEC50 (IGF1R): 5.81; pEC50 (GSK3B (GSK3 beta)): < 5.30; pEC50 (NEK4): < 5.30; pEC50 (LYN A): 6.41; pEC50 (MAPK12 (p38 gamma)): < 5.30; pEC50 (CSNK1A1 (CK1 alpha 1)): < 5.30
2 | CCN(CC)CCNc1ccc2ncn3c4ccc(O)cc4c(=O)c1c23 [Symadex, 5-(2-(diethylamino)ethylamino)-8-hydroxy-6H-imidazo[4,5,1-de]acridin-6-one, reference compound] | 5.71 | < 5.30 | 5.66 | < 5.30 | < 5.30 | < 5.30 | < 5.30 | < 5.30 | < 5.30 | < 5.30 | < 5.30 | < 5.30 | 5.69 | 5.35 | < 5.30 | < 5.30 | 5.48 | 5.40 | < 5.30 | < 5.30 | pEC50 (GRK5): < 5.30; pEC50 (IGF1R): < 5.30; pEC50 (GSK3B (GSK3 beta)): < 5.30; pEC50 (NEK4): < 5.30; pEC50 (LYN A): 6.10; pEC50 (MAPK12 (p38 gamma)): < 5.30; pEC50 (CSNK1A1 (CK1 alpha 1)): 5.46
